System: vibrio splendidus
Conditions: Penaeus vannamei pond
Description: 600,000 of Penaeus vannamei were raised in a pond with 1.1M depth and 1.6 hectare. […] At the next night, the pond was sterilized using the product prepared according to Example 5 with the content of iodine of 0.01 ppm.

With `CSCC[C@H](N)C(=O)O.I` [Example 5, methionine iodine] as the compound, how does the killing vibrio splendidus (content of iodine 0.01 ppm) read?
The killing vibrio splendidus was “very effective”.

What about the “time after which glimmering in the pond has disappeared” value (sterilized at content of iodine of 0.01 ppm) of the same compound?
Its value is 40 min.

Source: patent US20030171598A1, “Aminoacid-iodine complex” (priority 2001, published 2003)
